Experimental data from ChEMBL document CHEMBL3885881, “DrugMatrix”.

Species on record: Rattus norvegicus
Assay: DrugMatrix - Regimen: Daily Repeat
Assay type: toxicity, organism-based, Sprague-Dawley
Parameters: regimen Daily Repeat, gender Male, age 6-8 weeks
Conditions: in vivo, po, route oral GAVAGE, vehicle .5 % CMC; for BASOPHIL / EOSINOPHIL / ERYTHROCYTE COUNT / HEMATOCRIT / HEMOGLOBIN / LEUKOCYTE COUNT / LYMPHOCYTE / MEAN CORPUSCULAR HEMOGLOBIN / MEAN CORPUSCULAR HEMOGLOBIN CONCENTRATION / MEAN CORPUSCULAR VOLUME / MONOCYTE / NEUTROPHIL / PLATELET COUNT: tissue Blood; for ALANINE AMINOTRANSFERASE / ALBUMIN / ALKALINE PHOSPHATASE / ASPARTATE AMINOTRANSFERASE / BLOOD UREA NITROGEN / CHLORIDE / CHOLESTEROL / CREATINE PHOSPHOKINASE / CREATININE / GLUCOSE / PHOSPHORUS / POTASSIUM / SODIUM / TOTAL BILIRUBIN / TOTAL PROTEIN: tissue Plasma
[1] = 0 mg/kg, 72 h, dose level Control, time 3 day
[2] = 0 mg/kg, 120 h, dose level Control, time 5 day
[3] = 1 mg/kg, 72 h, dose level Low, time 3 day
[4] = 1 mg/kg, 120 h, dose level Low, time 5 day
[5] = 22 mg/kg, 72 h, dose level High, time 3 day
[6] = 22 mg/kg, 120 h, dose level High, time 5 day

N=C(N)NC(=O)c1nc(Cl)c(N)nc1N [AMILORIDE]
BASOPHIL [1]: 0%
EOSINOPHIL [1]: 0.33%
ERYTHROCYTE COUNT [1]: 6.2 x10E6/uL
HEMATOCRIT [1]: 38.08%
HEMOGLOBIN [1]: 14.92 G/DL
LEUKOCYTE COUNT [1]: 11.13 x10E3/uL
LYMPHOCYTE [1]: 76%
MEAN CORPUSCULAR HEMOGLOBIN [1]: 24.1 pg
MEAN CORPUSCULAR HEMOGLOBIN CONCENTRATION [1]: 39.17 G/DL
MEAN CORPUSCULAR VOLUME [1]: 61.48 fL
MONOCYTE [1]: 3.83%
NEUTROPHIL [1]: 19.83%
PLATELET COUNT [1]: 1327.5 x10E3/uL
ALANINE AMINOTRANSFERASE [1]: 40.17 u/L
ALBUMIN [1]: 4.07 G/DL
ALKALINE PHOSPHATASE [1]: 372 u/L
ASPARTATE AMINOTRANSFERASE [1]: 67.17 u/L
BLOOD UREA NITROGEN [1]: 18.83 mg/dL
CHLORIDE [1]: 105.17 MEQ/L
CHOLESTEROL [1]: 78.17 mg/dL
CREATINE PHOSPHOKINASE [1]: 149.17 u/L
CREATININE [1]: 0.57 mg/dL
GLUCOSE [1]: 185.17 mg/dL
PHOSPHORUS [1]: 11.43 mg/dL
POTASSIUM [1]: 6.78 MEQ/L
SODIUM [1]: 152.83 MEQ/L
TOTAL BILIRUBIN [1]: 0.4 mg/dL
TOTAL PROTEIN [1]: 6.87 G/DL
BASOPHIL [2]: 0%
EOSINOPHIL [2]: 0%
ERYTHROCYTE COUNT [2]: 6.05 x10E6/uL
HEMATOCRIT [2]: 36.55%
HEMOGLOBIN [2]: 14.7 G/DL
LEUKOCYTE COUNT [2]: 11.8 x10E3/uL
LYMPHOCYTE [2]: 86.83%
MEAN CORPUSCULAR HEMOGLOBIN [2]: 24.37 pg
MEAN CORPUSCULAR HEMOGLOBIN CONCENTRATION [2]: 40.32 G/DL
MEAN CORPUSCULAR VOLUME [2]: 60.47 fL
MONOCYTE [2]: 0.83%
NEUTROPHIL [2]: 12.33%
PLATELET COUNT [2]: 1177 x10E3/uL
ALANINE AMINOTRANSFERASE [2]: 41.83 u/L
ALBUMIN [2]: 3.75 G/DL
ALKALINE PHOSPHATASE [2]: 377.5 u/L
ASPARTATE AMINOTRANSFERASE [2]: 60.83 u/L
BLOOD UREA NITROGEN [2]: 16 mg/dL
CHLORIDE [2]: 105.67 MEQ/L
CHOLESTEROL [2]: 67.83 mg/dL
CREATINE PHOSPHOKINASE [2]: 120.33 u/L
CREATININE [2]: 0.6 mg/dL
GLUCOSE [2]: 167.67 mg/dL
PHOSPHORUS [2]: 10.03 mg/dL
POTASSIUM [2]: 6.68 MEQ/L
SODIUM [2]: 150.5 MEQ/L
TOTAL BILIRUBIN [2]: 0.57 mg/dL
TOTAL PROTEIN [2]: 6.25 G/DL
BASOPHIL [3]: 0%
EOSINOPHIL [3]: 1.33%
ERYTHROCYTE COUNT [3]: 6.13 x10E6/uL
HEMATOCRIT [3]: 37.63%
HEMOGLOBIN [3]: 14.93 G/DL
LEUKOCYTE COUNT [3]: 12.73 x10E3/uL
LYMPHOCYTE [3]: 84%
MEAN CORPUSCULAR HEMOGLOBIN [3]: 24.37 pg
MEAN CORPUSCULAR HEMOGLOBIN CONCENTRATION [3]: 39.67 G/DL
MEAN CORPUSCULAR VOLUME [3]: 61.4 fL
MONOCYTE [3]: 0.67%
NEUTROPHIL [3]: 14%
PLATELET COUNT [3]: 1265 x10E3/uL
ALANINE AMINOTRANSFERASE [3]: 50 u/L
ALBUMIN [3]: 3.87 G/DL
ALKALINE PHOSPHATASE [3]: 414 u/L
ASPARTATE AMINOTRANSFERASE [3]: 63.67 u/L
BLOOD UREA NITROGEN [3]: 15.67 mg/dL
CHLORIDE [3]: 107 MEQ/L
CHOLESTEROL [3]: 81.33 mg/dL
CREATINE PHOSPHOKINASE [3]: 135.67 u/L
CREATININE [3]: 0.57 mg/dL
GLUCOSE [3]: 168.67 mg/dL
PHOSPHORUS [3]: 10.33 mg/dL
POTASSIUM [3]: 6.13 MEQ/L
SODIUM [3]: 152.33 MEQ/L
TOTAL BILIRUBIN [3]: 0.43 mg/dL
TOTAL PROTEIN [3]: 6.37 G/DL
BASOPHIL [4]: 0%
EOSINOPHIL [4]: 0%
ERYTHROCYTE COUNT [4]: 5.82 x10E6/uL
HEMATOCRIT [4]: 35.67%
HEMOGLOBIN [4]: 14.2 G/DL
LEUKOCYTE COUNT [4]: 12.4 x10E3/uL
LYMPHOCYTE [4]: 85.33%
MEAN CORPUSCULAR HEMOGLOBIN [4]: 24.43 pg
MEAN CORPUSCULAR HEMOGLOBIN CONCENTRATION [4]: 39.93 G/DL
MEAN CORPUSCULAR VOLUME [4]: 61.3 fL
MONOCYTE [4]: 2%
NEUTROPHIL [4]: 12.67%
PLATELET COUNT [4]: 1224 x10E3/uL
ALANINE AMINOTRANSFERASE [4]: 35.33 u/L
ALBUMIN [4]: 3.67 G/DL
ALKALINE PHOSPHATASE [4]: 386.67 u/L
ASPARTATE AMINOTRANSFERASE [4]: 62 u/L
BLOOD UREA NITROGEN [4]: 15 mg/dL
CHLORIDE [4]: 105.33 MEQ/L
CHOLESTEROL [4]: 74 mg/dL
CREATINE PHOSPHOKINASE [4]: 130.33 u/L
CREATININE [4]: 0.63 mg/dL
GLUCOSE [4]: 171 mg/dL
PHOSPHORUS [4]: 10.63 mg/dL
POTASSIUM [4]: 6.7 MEQ/L
SODIUM [4]: 150 MEQ/L
TOTAL BILIRUBIN [4]: 0.5 mg/dL
TOTAL PROTEIN [4]: 6.1 G/DL
BASOPHIL [5]: 0%
EOSINOPHIL [5]: 1%
ERYTHROCYTE COUNT [5]: 5.75 x10E6/uL
HEMATOCRIT [5]: 35.27%
HEMOGLOBIN [5]: 13.6 G/DL
LEUKOCYTE COUNT [5]: 10.47 x10E3/uL
LYMPHOCYTE [5]: 85%
MEAN CORPUSCULAR HEMOGLOBIN [5]: 23.63 pg
MEAN CORPUSCULAR HEMOGLOBIN CONCENTRATION [5]: 38.63 G/DL
MEAN CORPUSCULAR VOLUME [5]: 61.17 fL
MONOCYTE [5]: 1.33%
NEUTROPHIL [5]: 12.67%
PLATELET COUNT [5]: 1066.33 x10E3/uL
ALANINE AMINOTRANSFERASE [5]: 46 u/L
ALBUMIN [5]: 4.03 G/DL
ALKALINE PHOSPHATASE [5]: 373.67 u/L
ASPARTATE AMINOTRANSFERASE [5]: 68.33 u/L
BLOOD UREA NITROGEN [5]: 23.33 mg/dL
CHLORIDE [5]: 102.67 MEQ/L
CHOLESTEROL [5]: 70 mg/dL
CREATINE PHOSPHOKINASE [5]: 117 u/L
CREATININE [5]: 0.7 mg/dL
GLUCOSE [5]: 167 mg/dL
PHOSPHORUS [5]: 11.37 mg/dL
POTASSIUM [5]: 7.33 MEQ/L
SODIUM [5]: 146 MEQ/L
TOTAL BILIRUBIN [5]: 0.57 mg/dL
TOTAL PROTEIN [5]: 6.63 G/DL
BASOPHIL [6]: 0%
EOSINOPHIL [6]: 0%
ERYTHROCYTE COUNT [6]: 6.16 x10E6/uL
HEMATOCRIT [6]: 36.37%
HEMOGLOBIN [6]: 14.6 G/DL
LEUKOCYTE COUNT [6]: 18.57 x10E3/uL
LYMPHOCYTE [6]: 86%
MEAN CORPUSCULAR HEMOGLOBIN [6]: 23.73 pg
MEAN CORPUSCULAR HEMOGLOBIN CONCENTRATION [6]: 40.17 G/DL
MEAN CORPUSCULAR VOLUME [6]: 59.03 fL
MONOCYTE [6]: 1.33%
NEUTROPHIL [6]: 11.67%
PLATELET COUNT [6]: 1100.67 x10E3/uL
ALANINE AMINOTRANSFERASE [6]: 47.33 u/L
ALBUMIN [6]: 3.77 G/DL
ALKALINE PHOSPHATASE [6]: 450.67 u/L
ASPARTATE AMINOTRANSFERASE [6]: 62 u/L
BLOOD UREA NITROGEN [6]: 22.33 mg/dL
CHLORIDE [6]: 104.67 MEQ/L
CHOLESTEROL [6]: 76 mg/dL
CREATINE PHOSPHOKINASE [6]: 128.33 u/L
CREATININE [6]: 0.63 mg/dL
GLUCOSE [6]: 167.67 mg/dL
PHOSPHORUS [6]: 10.73 mg/dL
POTASSIUM [6]: 6.83 MEQ/L
SODIUM [6]: 148.33 MEQ/L
TOTAL BILIRUBIN [6]: 0.47 mg/dL
TOTAL PROTEIN [6]: 6.07 G/DL
